The values that follow come from patent US6114334A, “Piperazine derivatives as therapeutic agents” (Knoll Aktiengesellschaft, priority 1995, dated 2000).

Each structure is given as a SMILES string.

One experiment deals with T1, α2D-adrenoceptors (Rattus norvegicus, UniProt P22909).
T1 sequence (P22909 1-465): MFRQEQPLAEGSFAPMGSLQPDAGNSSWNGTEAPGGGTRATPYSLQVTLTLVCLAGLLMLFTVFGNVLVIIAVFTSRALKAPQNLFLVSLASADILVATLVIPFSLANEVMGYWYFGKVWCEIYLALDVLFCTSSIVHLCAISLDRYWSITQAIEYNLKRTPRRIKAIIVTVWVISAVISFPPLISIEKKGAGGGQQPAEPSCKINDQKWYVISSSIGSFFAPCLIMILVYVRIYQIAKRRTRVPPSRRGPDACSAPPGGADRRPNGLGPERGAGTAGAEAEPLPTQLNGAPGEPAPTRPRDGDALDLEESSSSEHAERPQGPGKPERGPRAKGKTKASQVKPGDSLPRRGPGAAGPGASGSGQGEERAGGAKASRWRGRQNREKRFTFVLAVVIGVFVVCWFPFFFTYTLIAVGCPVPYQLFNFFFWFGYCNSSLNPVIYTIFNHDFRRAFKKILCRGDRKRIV
Nature of the experiment: inhibition of tritiated idazoxan binding to α2D-adrenoceptors in vitro. To be noted: rat frontal cortex; for inhibition at 1 µM: 10^-6 M, [3H]idazoxan, read-out: % displacement at 10^-6 M, α2D. Set-up: species or system rat (male Charles River CD, frontal cortical tissue).

In a further experiment the target is T2, α2A-adrenoceptors (Homo sapiens, UniProt P08913).
T2 construct: Human cerebral cortex obtained at post-mortem; from tissue; host or cells: human cerebral cortex, post-mortem
T2 sequence (P08913 1-465): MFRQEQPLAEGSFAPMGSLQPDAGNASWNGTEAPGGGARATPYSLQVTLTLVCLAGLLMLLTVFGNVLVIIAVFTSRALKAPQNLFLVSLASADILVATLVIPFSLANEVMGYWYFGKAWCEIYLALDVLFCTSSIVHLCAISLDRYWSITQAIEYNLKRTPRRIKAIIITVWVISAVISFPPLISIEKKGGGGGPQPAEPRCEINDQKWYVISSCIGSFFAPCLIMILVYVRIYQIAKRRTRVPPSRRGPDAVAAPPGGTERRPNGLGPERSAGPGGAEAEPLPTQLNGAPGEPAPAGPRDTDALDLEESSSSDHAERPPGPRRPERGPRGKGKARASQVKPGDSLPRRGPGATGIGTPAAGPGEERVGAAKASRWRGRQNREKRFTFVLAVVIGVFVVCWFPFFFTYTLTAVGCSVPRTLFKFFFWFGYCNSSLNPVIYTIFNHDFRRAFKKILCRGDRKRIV
The experiment is described as follows: inhibition of tritiated RX 821002 binding to α2A-adrenoceptors in vitro. Set-up: species or system human (cerebral cortex post-mortem). To be noted: 10^-6 M, human cerebral cortex, [3H]RX 821002; read-out: % displacement at 10^-6 M, α2A. A digest of the protocol:
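Post-mortem human cerebral cortex membranes (10 mg wet tissue/tube; 50 mM Tris-HCl pH 7.5, ascorbate, EDTA) incubated 75 min at 0 °C with [3H]RX 821002 (0.2 nM as added) and compound; filtration, scintillation counting. Compounds displacing ≥50% at 10^-6 M tested at 10^-11–10^-3 M; IC50 converted to Ki.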

Another experiment concerns the target T3, 5-HT1A receptors (Rattus norvegicus, UniProt P19327).
T3 sequence (P19327 1-422): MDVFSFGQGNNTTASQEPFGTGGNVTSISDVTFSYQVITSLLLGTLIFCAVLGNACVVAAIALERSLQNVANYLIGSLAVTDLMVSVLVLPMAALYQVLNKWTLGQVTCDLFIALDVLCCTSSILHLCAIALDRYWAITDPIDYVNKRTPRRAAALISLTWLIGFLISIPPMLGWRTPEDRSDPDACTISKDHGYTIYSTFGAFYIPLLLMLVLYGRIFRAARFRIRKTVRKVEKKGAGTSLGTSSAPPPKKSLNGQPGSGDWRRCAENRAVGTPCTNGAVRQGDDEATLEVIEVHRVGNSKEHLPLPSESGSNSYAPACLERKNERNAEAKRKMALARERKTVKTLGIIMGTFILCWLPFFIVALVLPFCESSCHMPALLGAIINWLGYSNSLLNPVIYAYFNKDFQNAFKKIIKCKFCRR
Nature of the experiment: inhibition of [3H]8-OH-DPAT binding to 5-HT1A receptors in vitro. The settings on record: rat hippocampus, [3H]8-OH-DPAT 2 nM, 25° C., 30 min. Set-up: species or system rat (male Sprague-Dawley, hippocampal tissue).

The target in another experiment is D2 dopamine receptors (Rattus norvegicus, UniProt P61169). The experiment is described as follows: inhibition of tritiated (S)-sulpiride binding to D2 dopamine receptors in vitro. Also noted: species or system rat (male Charles River CD, striatal tissue). To be noted: rat striatum, tritiated (S)-sulpiride 1 nM, 4° C., 40 min.
D2 dopamine receptors, sequence (P61169 whole entry): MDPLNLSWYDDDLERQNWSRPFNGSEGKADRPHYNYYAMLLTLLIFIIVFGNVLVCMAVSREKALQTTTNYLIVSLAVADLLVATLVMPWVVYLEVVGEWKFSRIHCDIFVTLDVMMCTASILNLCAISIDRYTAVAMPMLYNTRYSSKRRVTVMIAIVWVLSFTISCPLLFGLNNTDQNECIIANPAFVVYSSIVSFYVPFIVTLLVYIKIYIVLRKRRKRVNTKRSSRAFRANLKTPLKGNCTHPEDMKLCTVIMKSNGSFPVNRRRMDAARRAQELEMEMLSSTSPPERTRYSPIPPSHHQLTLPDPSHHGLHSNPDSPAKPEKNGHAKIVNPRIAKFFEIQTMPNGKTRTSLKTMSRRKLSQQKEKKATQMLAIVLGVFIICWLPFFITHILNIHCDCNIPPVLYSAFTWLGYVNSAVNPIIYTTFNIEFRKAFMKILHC
In another experiment the test system is α1-adrenoceptors. The experiment is described as follows: inhibition of 7-methoxy-[3H]prazosin binding to α1-adrenoceptors in vitro. Set-up: species or system rat (male Charles River CD, whole cortical tissue). To be noted: rat whole cortex, 30 min; for Ki: 7-methoxy-[3H]prazosin 0.1 nM, 30° C. The procedure, abridged:
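Male CD rat cortical membranes in 50 mM Tris-HCl pH 7.6 were incubated 30 min at 30 °C with 7-methoxy-[3H]prazosin (0.1 nM as added), with 5 μM phentolamine (as added) defining non-specific binding, then filtered and counted. Compounds were tested at 10^-6 M for % displacement or at 10^-11–10^-3 M for IC50, and Ki was derived from IC50, ligand concentration and KD.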

For orientation: Ki means the dissociation constant of the complex between target and ligand, obtained from inhibition or displacement. In the case of `Cc1ccccc1N1CCN(Cc2c(N)n(C)n(-c3ccccc3)c2=O)CC1` [Example 3, 3-Amino-2-methyl-4-[4-(2-methylphenyl)piperazin-1-ylmethyl]-1-phenyl-3-pyrazolin-5-one], the inhibition at 1 µM worked out at 56% at α2D-adrenoceptors and 98% on α2A-adrenoceptors. The inhibition constant (Ki) on 5-HT1A receptors and at D2 dopamine receptors was greater than 0.5 µM each time. The “% displacement at 10^-6 M, α1” value in the experiment with α1-adrenoceptors (10^-6 M, 7-methoxy-[3H]prazosin, 1 µM) worked out at 89%.

With `Nc1c(CN2CCN(c3cccc4c3OCCO4)CC2)c(C2CCC2)nn1-c1ccccc1` [Example 29, 5-Amino-4-[4-(1,4-benzodioxan-5-yl)piperazin-1-ylmethyl]-3-cyclobutyl-1-phenylpyrazole], the results for the inhibition at 1 µM at α2D-adrenoceptors and on α2A-adrenoceptors were 96% and 100%, respectively. The inhibition constant Ki on 5-HT1A receptors was 0.034 µM; on D2 dopamine receptors, greater than 0.5 µM; at α1-adrenoceptors, 0.05 µM.

For the compound `COc1ccccc1N1CCN(CC2(C)N=C(c3ccccc3)NC2=O)CC1` (stereo not drawn) [Example 37, 4-[4-(2-methoxyphenyl)piperazin-1-ylmethyl]-4-methyl-2-phenyl-2-imidazolin-5-one], the inhibitory constant (Ki) at α2D-adrenoceptors ([3H]idazoxan 1 nM, 0° C., 75 min) came to 0.112 µM; at 5-HT1A receptors it was 0.093 µM; at D2 dopamine receptors, 0.268 µM; at α1-adrenoceptors it was 0.271 µM. The inhibition at 1 µM on α2A-adrenoceptors was determined as 69%.
